Compound: Cc1cc([C@@H](C)Nc2ccccc2C(=O)O)c2nc(N3CCOCC3)cc(=O)n2c1 [AZD6482] + CS(=O)(=O)CCNCc1ccc(-c2ccc3ncnc(Nc4ccc(OCc5cccc(F)c5)c(Cl)c4)c3c2)o1 [Lapatinib] (partner 2 µM)
Assay: relative viability (nuclei count vs DMSO), 5 days (fraction); higher = more cells survive
Details: first compound 0.08 µM
In short: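 Relative viability is defined as nuclei in treated wells over nuclei in vehicle wells. Duplicate plates were run and medians reported. Lung cancer cell lines in 1536-well plates were dosed by pin tool one day after seeding, with one drug or with a fixed anchor-drug dose plus five library-drug doses (not always all listed) in √10 steps, and nuclei were counted after 5 days.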

HCC-366 was tested. Which relative viability did it give?
Its relative viability is 0.9.

Which relative viability does the source give for NCI-H1666 here?
The relative viability was 0.283.

For NCI-H596, which relative viability is on record?
The relative viability was 0.722.

For LK-2, which relative viability is on record?
Its relative viability is 1.13.

Which relative viability does the source give for NCI-H2087 here?
Its relative viability is 1.22.

Which relative viability does the source give for SK-MES-1 here?
The relative viability was 0.363.

With H3255 as the cell line, how does the relative viability read?
Its relative viability is 0.194.

Which relative viability does the source give for COR-L23 here?
The relative viability was 0.938.

Which relative viability does the source give for COR-L 105 here?
The relative viability was 0.382.

Which relative viability does the source give for IA-LM here?
The relative viability was 0.898.

How did the relative viability turn out when LOU-NH91 was run?
Its relative viability is 0.626.

Which relative viability does the source give for NCI-H2170 here?
The relative viability was 0.245.

With NCI-H2405 as the cell line, how does the relative viability read?
The relative viability was 0.69.

Which relative viability does the source give for HOP-62 here?
Its relative viability is 1.06.

How did the relative viability turn out when HCC-44 was run?
The relative viability was 0.909.

How did the relative viability turn out when A549 was run?
The relative viability was 0.944.

For LU99A, which relative viability is on record?
The relative viability was 0.972.

BEN was tested. Which relative viability did it give?
Its relative viability is 0.732.

With HARA as the cell line, how does the relative viability read?
The relative viability was 0.707.

For HCC-78, which relative viability is on record?
The relative viability was 0.512.

NCI-H322M was tested. Which relative viability did it give?
Its relative viability is 0.53.

Which relative viability does the source give for LCLC-97TM1 here?
The relative viability was 1.04.

NCI-H2009 was tested. Which relative viability did it give?
The relative viability was 1.1.

How did the relative viability turn out when A-427 was run?
Its relative viability is 0.97.

Which relative viability does the source give for NCI-H661 here?
The relative viability was 0.531.

NCI-H1734 was tested. Which relative viability did it give?
The relative viability was 0.933.

NCI-H460 was tested. Which relative viability did it give?
The relative viability was 0.869.

NCI-H1395 was tested. Which relative viability did it give?
Its relative viability is 0.787.

201T was tested. Which relative viability did it give?
Its relative viability is 1.02.

Which relative viability does the source give for NCI-H1915 here?
The relative viability was 0.933.

Which relative viability does the source give for HCC-827 here?
The relative viability was 0.164.

Which relative viability does the source give for LXF-289 here?
Its relative viability is 0.924.

How did the relative viability turn out when NCI-H23 was run?
The relative viability was 1.03.

Same assay, conditions: first compound 0.253 µM

How did the relative viability turn out when HCC-366 was run?
Its relative viability is 0.97.

Which relative viability does the source give for NCI-H1666 here?
The relative viability was 0.616.

NCI-H596 was tested. Which relative viability did it give?
The relative viability was 0.953.

Which relative viability does the source give for LK-2 here?
The relative viability was 0.645.

Which relative viability does the source give for NCI-H2087 here?
Its relative viability is 1.12.

SK-MES-1 was tested. Which relative viability did it give?
Its relative viability is 0.366.

With H3255 as the cell line, how does the relative viability read?
The relative viability was 0.221.

How did the relative viability turn out when COR-L23 was run?
Its relative viability is 0.948.

Which relative viability does the source give for COR-L 105 here?
The relative viability was 0.326.

Which relative viability does the source give for IA-LM here?
Its relative viability is 1.13.

For LOU-NH91, which relative viability is on record?
The relative viability was 0.752.

NCI-H2170 was tested. Which relative viability did it give?
The relative viability was 0.249.

HOP-62 was tested. Which relative viability did it give?
The relative viability was 0.856.

With HCC-44 as the cell line, how does the relative viability read?
Its relative viability is 1.06.

For A549, which relative viability is on record?
Its relative viability is 0.891.

LU99A was tested. Which relative viability did it give?
The relative viability was 0.881.

For BEN, which relative viability is on record?
Its relative viability is 0.722.

How did the relative viability turn out when HARA was run?
The relative viability was 0.503.

With HCC-78 as the cell line, how does the relative viability read?
Its relative viability is 0.683.

Which relative viability does the source give for NCI-H322M here?
The relative viability was 0.441.

With LCLC-97TM1 as the cell line, how does the relative viability read?
The relative viability was 1.01.

For NCI-H2009, which relative viability is on record?
The relative viability was 1.

How did the relative viability turn out when A-427 was run?
The relative viability was 0.869.

For NCI-H661, which relative viability is on record?
Its relative viability is 0.455.

How did the relative viability turn out when NCI-H1734 was run?
The relative viability was 1.02.

With NCI-H460 as the cell line, how does the relative viability read?
The relative viability was 0.796.

For NCI-H2347, which relative viability is on record?
The relative viability was 0.946.

SK-LU-1 was tested. Which relative viability did it give?
Its relative viability is 0.76.

NCI-H1395 was tested. Which relative viability did it give?
Its relative viability is 0.741.

For 201T, which relative viability is on record?
Its relative viability is 1.04.

With NCI-H1915 as the cell line, how does the relative viability read?
The relative viability was 0.813.

Which relative viability does the source give for HCC-827 here?
The relative viability was 0.174.

With LXF-289 as the cell line, how does the relative viability read?
The relative viability was 0.913.

NCI-H23 was tested. Which relative viability did it give?
Its relative viability is 0.848.

Same assay, conditions: first compound 0.8 µM

How did the relative viability turn out when HCC-366 was run?
The relative viability was 1.11.

Which relative viability does the source give for NCI-H1666 here?
Its relative viability is 0.556.

Which relative viability does the source give for NCI-H596 here?
Its relative viability is 1.06.

With LK-2 as the cell line, how does the relative viability read?
Its relative viability is 0.959.

For NCI-H2087, which relative viability is on record?
The relative viability was 1.43.

SK-MES-1 was tested. Which relative viability did it give?
The relative viability was 0.367.

For H3255, which relative viability is on record?
Its relative viability is 0.263.

How did the relative viability turn out when COR-L23 was run?
The relative viability was 1.15.

With COR-L 105 as the cell line, how does the relative viability read?
The relative viability was 0.351.

Which relative viability does the source give for IA-LM here?
The relative viability was 0.903.

How did the relative viability turn out when LOU-NH91 was run?
Its relative viability is 0.681.

For NCI-H2170, which relative viability is on record?
The relative viability was 0.303.

For NCI-H2405, which relative viability is on record?
The relative viability was 1.12.

With HOP-62 as the cell line, how does the relative viability read?
Its relative viability is 1.32.

How did the relative viability turn out when HCC-44 was run?
Its relative viability is 1.13.

Which relative viability does the source give for A549 here?
Its relative viability is 0.913.

Which relative viability does the source give for LU99A here?
The relative viability was 0.938.

BEN was tested. Which relative viability did it give?
Its relative viability is 0.671.

Which relative viability does the source give for HARA here?
The relative viability was 0.919.

How did the relative viability turn out when HCC-78 was run?
Its relative viability is 1.52.

Which relative viability does the source give for NCI-H322M here?
Its relative viability is 0.561.

With LCLC-97TM1 as the cell line, how does the relative viability read?
The relative viability was 1.28.

How did the relative viability turn out when NCI-H2009 was run?
The relative viability was 1.04.

A-427 was tested. Which relative viability did it give?
The relative viability was 1.08.

NCI-H661 was tested. Which relative viability did it give?
The relative viability was 0.393.

NCI-H1734 was tested. Which relative viability did it give?
The relative viability was 1.16.

How did the relative viability turn out when NCI-H460 was run?
The relative viability was 1.17.

With NCI-H2347 as the cell line, how does the relative viability read?
The relative viability was 0.988.

With SK-LU-1 as the cell line, how does the relative viability read?
Its relative viability is 0.849.

NCI-H1395 was tested. Which relative viability did it give?
The relative viability was 0.836.

How did the relative viability turn out when 201T was run?
Its relative viability is 1.17.

For NCI-H1915, which relative viability is on record?
Its relative viability is 1.05.

For HCC-827, which relative viability is on record?
The relative viability was 0.196.

LXF-289 was tested. Which relative viability did it give?
Its relative viability is 0.892.

For NCI-H23, which relative viability is on record?
Its relative viability is 1.32.

Same assay, conditions: first compound 2.53 µM

With HCC-366 as the cell line, how does the relative viability read?
The relative viability was 0.579.

With NCI-H1666 as the cell line, how does the relative viability read?
Its relative viability is 0.517.

NCI-H596 was tested. Which relative viability did it give?
The relative viability was 0.873.

How did the relative viability turn out when LK-2 was run?
The relative viability was 0.767.

With NCI-H2087 as the cell line, how does the relative viability read?
The relative viability was 0.864.

For SK-MES-1, which relative viability is on record?
Its relative viability is 0.301.

For H3255, which relative viability is on record?
The relative viability was 0.182.

With COR-L23 as the cell line, how does the relative viability read?
The relative viability was 0.734.

Which relative viability does the source give for COR-L 105 here?
Its relative viability is 0.364.

For LOU-NH91, which relative viability is on record?
Its relative viability is 0.501.

NCI-H2170 was tested. Which relative viability did it give?
The relative viability was 0.248.

How did the relative viability turn out when NCI-H2405 was run?
The relative viability was 0.627.

Which relative viability does the source give for HOP-62 here?
Its relative viability is 0.827.

For HCC-44, which relative viability is on record?
Its relative viability is 1.1.

How did the relative viability turn out when A549 was run?
Its relative viability is 0.485.

How did the relative viability turn out when LU99A was run?
The relative viability was 0.751.

Which relative viability does the source give for BEN here?
Its relative viability is 0.553.

HCC-78 was tested. Which relative viability did it give?
The relative viability was 0.255.

With NCI-H322M as the cell line, how does the relative viability read?
Its relative viability is 0.357.

With LCLC-97TM1 as the cell line, how does the relative viability read?
Its relative viability is 0.271.

Which relative viability does the source give for NCI-H2009 here?
Its relative viability is 0.579.

With A-427 as the cell line, how does the relative viability read?
Its relative viability is 0.777.

How did the relative viability turn out when NCI-H1734 was run?
The relative viability was 0.632.

With NCI-H460 as the cell line, how does the relative viability read?
The relative viability was 0.585.

How did the relative viability turn out when NCI-H2347 was run?
Its relative viability is 0.653.

How did the relative viability turn out when SK-LU-1 was run?
Its relative viability is 0.687.

Which relative viability does the source give for NCI-H1395 here?
The relative viability was 0.511.

How did the relative viability turn out when 201T was run?
The relative viability was 0.843.

With NCI-H1915 as the cell line, how does the relative viability read?
Its relative viability is 0.844.

HCC-827 was tested. Which relative viability did it give?
Its relative viability is 0.177.

How did the relative viability turn out when LXF-289 was run?
Its relative viability is 0.821.

With NCI-H23 as the cell line, how does the relative viability read?
Its relative viability is 0.644.

Same assay, conditions: first compound 8 µM

For HCC-366, which relative viability is on record?
The relative viability was 0.532.

Which relative viability does the source give for NCI-H1666 here?
The relative viability was 0.417.

With NCI-H596 as the cell line, how does the relative viability read?
Its relative viability is 0.853.

For LK-2, which relative viability is on record?
The relative viability was 0.815.

With NCI-H2087 as the cell line, how does the relative viability read?
Its relative viability is 0.98.

How did the relative viability turn out when SK-MES-1 was run?
The relative viability was 0.319.

With H3255 as the cell line, how does the relative viability read?
The relative viability was 0.152.

With COR-L23 as the cell line, how does the relative viability read?
Its relative viability is 0.893.

Which relative viability does the source give for COR-L 105 here?
Its relative viability is 0.355.

IA-LM was tested. Which relative viability did it give?
The relative viability was 0.626.

LOU-NH91 was tested. Which relative viability did it give?
The relative viability was 0.494.

Which relative viability does the source give for NCI-H2170 here?
The relative viability was 0.295.

How did the relative viability turn out when NCI-H2405 was run?
The relative viability was 0.483.

How did the relative viability turn out when HOP-62 was run?
The relative viability was 1.1.

How did the relative viability turn out when HCC-44 was run?
Its relative viability is 0.882.

Which relative viability does the source give for A549 here?
The relative viability was 0.571.

How did the relative viability turn out when LU99A was run?
Its relative viability is 0.866.

For BEN, which relative viability is on record?
The relative viability was 0.687.

HARA was tested. Which relative viability did it give?
The relative viability was 0.483.

For HCC-78, which relative viability is on record?
Its relative viability is 0.503.

For NCI-H322M, which relative viability is on record?
Its relative viability is 0.495.

From the supplement of paper PMC10307832
